Measured values as given in ChEMBL document CHEMBL1143001, “Designing active template molecules by combining computational de novo design and human chemist's expertise” (J Med Chem, 2007).
Active and inactive are the calls of the source.

What was measured:
[1] = target: Phosphodiesterase 3 (Homo sapiens) (UniProt Q14432+Q13370); assay: Inhibition of PDE3 expressed in human platelets at 10 uM
[2] = target: cGMP-specific 3',5'-cyclic phosphodiesterase (Homo sapiens) (UniProt O76074); assay: Inhibition of PDE5 in human platelet cells at 10 uM; assay type: cell-based
Rattus norvegicus [3] = species: Rattus norvegicus; assay: Inhibition of rat brain adenylyl cyclase at 10 uM
Bos taurus [4] = species: Bos taurus; assay: Inhibition of bovine lung guanylyl cyclase at 10 uM
Sus scrofa = species: Sus scrofa; assay: Inhibition of pig liver catechol-O-methyl transferase at 10 uM
[5] = target: 4-aminobutyrate aminotransferase, mitochondrial (Rattus norvegicus) (UniProt P50554); assay: Inhibition of rat brain GABA transaminase at 10 uM
4-aminobutyrate aminotransferase, mitochondrial (Rattus norvegicus), sequence (P50554 28-500 limits assumed): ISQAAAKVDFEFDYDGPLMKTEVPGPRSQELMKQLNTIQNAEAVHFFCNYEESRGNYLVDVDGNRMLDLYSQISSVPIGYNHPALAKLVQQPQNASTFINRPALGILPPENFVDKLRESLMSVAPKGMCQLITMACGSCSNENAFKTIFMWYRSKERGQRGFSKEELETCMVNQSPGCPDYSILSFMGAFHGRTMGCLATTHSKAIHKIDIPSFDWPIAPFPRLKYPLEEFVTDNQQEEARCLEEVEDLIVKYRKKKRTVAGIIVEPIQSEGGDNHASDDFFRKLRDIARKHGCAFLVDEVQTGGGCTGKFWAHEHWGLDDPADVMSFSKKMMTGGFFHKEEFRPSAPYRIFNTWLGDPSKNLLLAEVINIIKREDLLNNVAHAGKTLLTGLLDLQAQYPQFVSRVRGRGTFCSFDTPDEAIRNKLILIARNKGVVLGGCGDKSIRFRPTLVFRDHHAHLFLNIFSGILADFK

[6] = target: T1, Amine oxidase [flavin-containing] B (Homo sapiens, UniProt P27338); assay: Inhibition of MAOB in human platelets at 10 uM
T1 sequence (P27338 whole entry): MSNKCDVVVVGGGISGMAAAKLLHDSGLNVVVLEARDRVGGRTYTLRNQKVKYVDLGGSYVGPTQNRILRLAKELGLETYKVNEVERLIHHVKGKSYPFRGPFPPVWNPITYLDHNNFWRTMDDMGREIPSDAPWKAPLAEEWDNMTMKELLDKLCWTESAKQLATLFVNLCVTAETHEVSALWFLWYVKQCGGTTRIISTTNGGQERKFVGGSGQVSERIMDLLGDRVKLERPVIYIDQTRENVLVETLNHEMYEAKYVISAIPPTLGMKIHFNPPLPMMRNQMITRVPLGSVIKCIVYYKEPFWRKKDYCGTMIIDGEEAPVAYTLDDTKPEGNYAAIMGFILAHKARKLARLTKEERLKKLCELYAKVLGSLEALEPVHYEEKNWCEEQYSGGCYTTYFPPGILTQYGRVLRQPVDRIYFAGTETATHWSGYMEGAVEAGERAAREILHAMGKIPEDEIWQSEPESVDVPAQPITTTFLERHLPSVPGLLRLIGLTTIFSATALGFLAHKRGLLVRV

[7] = target: T2, Phenylethanolamine N-methyltransferase (Bos taurus) (UniProt P10938); assay: Inhibition of bovine adrenal medulla phenylethanolamine-N-methyl transferase at 10 uM; assay type: tissue-based
T2 sequence (whole entry): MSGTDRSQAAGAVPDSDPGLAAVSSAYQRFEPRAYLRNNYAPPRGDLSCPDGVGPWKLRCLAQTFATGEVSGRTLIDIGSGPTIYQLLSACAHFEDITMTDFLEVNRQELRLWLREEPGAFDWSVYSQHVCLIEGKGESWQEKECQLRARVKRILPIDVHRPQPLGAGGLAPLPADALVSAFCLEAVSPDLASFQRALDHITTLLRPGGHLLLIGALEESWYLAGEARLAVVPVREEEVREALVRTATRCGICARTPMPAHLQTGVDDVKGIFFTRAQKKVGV

Rattus norvegicus [8] = species: Rattus norvegicus; assay: Inhibition of rat striatum tyrosine hydroxylase at 10 uM; assay type: tissue-based
Canis lupus familiaris = species: Canis lupus familiaris; assay: Inhibition of dog kidney (Na+/K+) ATPase at 10 uM
[9] = target: Muscarinic acetylcholine receptor M5 (Rattus norvegicus) (UniProt P08911); assay: Displacement of radiolabeled atropine from rat brain muscarinic M5 receptor at 10 uM
Muscarinic acetylcholine receptor M5 (Rattus norvegicus), sequence (P08911 whole entry): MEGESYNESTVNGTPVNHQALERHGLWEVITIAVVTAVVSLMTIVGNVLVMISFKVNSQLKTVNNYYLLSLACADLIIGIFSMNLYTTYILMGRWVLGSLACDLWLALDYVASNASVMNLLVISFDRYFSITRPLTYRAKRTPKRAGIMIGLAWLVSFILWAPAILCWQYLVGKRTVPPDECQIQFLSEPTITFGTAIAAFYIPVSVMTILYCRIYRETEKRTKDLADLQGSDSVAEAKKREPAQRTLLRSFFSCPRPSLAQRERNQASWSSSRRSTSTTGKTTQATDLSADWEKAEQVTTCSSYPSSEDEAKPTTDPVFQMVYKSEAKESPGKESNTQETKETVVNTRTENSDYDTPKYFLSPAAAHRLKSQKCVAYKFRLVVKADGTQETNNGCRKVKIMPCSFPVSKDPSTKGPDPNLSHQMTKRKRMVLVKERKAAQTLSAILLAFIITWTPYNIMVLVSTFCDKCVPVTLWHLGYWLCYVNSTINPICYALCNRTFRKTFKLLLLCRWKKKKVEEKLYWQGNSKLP

Homo sapiens = species: Homo sapiens; assay: Displacement of radiolabeled ligand from nicotinic acetylcholine receptor at 10 uM
[10] = target: Sodium-dependent noradrenaline transporter (Homo sapiens) (UniProt P23975); assay: Displacement of radiolabeled protriptyline from human recombinant NET expressed in CHO cells at 10 uM; assay type: cell-based
Sodium-dependent noradrenaline transporter (Homo sapiens), sequence (P23975 whole entry): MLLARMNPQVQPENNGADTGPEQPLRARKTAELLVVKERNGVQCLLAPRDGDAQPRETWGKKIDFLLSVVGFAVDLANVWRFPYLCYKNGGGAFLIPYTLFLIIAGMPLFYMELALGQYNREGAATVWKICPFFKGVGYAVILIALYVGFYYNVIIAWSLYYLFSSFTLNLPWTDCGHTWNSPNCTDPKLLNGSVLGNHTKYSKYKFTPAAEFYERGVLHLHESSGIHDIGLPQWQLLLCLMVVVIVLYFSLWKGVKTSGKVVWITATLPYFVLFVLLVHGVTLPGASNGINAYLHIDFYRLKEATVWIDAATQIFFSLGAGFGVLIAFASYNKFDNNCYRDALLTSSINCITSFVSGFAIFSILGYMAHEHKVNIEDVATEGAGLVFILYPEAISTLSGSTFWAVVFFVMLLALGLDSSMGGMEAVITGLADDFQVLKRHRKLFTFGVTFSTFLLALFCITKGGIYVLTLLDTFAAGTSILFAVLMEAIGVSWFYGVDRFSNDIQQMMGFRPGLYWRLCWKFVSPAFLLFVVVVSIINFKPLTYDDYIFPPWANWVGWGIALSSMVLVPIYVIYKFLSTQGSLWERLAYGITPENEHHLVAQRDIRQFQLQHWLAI

[11] = target: Sodium-dependent dopamine transporter (Homo sapiens) (UniProt Q01959); assay: Displacement of radiolabeled BTCP from human recombinant DAT expressed in CHO cells at 10 uM; assay type: cell-based
[12] = target: Sodium-dependent serotonin transporter (Homo sapiens) (UniProt P31645); assay: Displacement of radiolabeled Imipramine from human recombinant 5HT transporter expressed in HEK293 cells at 10 uM; assay type: cell-based
Sodium-dependent serotonin transporter (Homo sapiens), sequence (P31645 whole entry, looked up): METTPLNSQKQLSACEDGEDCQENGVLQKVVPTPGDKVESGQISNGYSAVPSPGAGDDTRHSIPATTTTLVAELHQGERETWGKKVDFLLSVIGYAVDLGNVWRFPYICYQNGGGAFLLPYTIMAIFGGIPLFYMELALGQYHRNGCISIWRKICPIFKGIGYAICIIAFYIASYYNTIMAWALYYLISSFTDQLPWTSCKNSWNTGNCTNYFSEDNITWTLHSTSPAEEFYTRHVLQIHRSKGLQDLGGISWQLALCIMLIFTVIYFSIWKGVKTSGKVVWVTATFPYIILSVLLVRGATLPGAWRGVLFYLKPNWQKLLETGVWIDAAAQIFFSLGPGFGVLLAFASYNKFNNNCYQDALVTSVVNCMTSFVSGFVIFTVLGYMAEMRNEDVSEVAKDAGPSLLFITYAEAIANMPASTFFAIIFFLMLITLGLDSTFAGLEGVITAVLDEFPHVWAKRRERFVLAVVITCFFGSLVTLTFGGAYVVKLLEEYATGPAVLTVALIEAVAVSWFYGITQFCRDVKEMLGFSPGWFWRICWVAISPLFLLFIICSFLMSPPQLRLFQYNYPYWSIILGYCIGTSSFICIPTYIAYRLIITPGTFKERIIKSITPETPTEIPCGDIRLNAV

Rattus norvegicus [13] = species: Rattus norvegicus; assay: Displacement of radiolabeled kainic acid from rat cerebral cortex Kainate receptor at 10 uM; assay type: tissue-based
[14] = target: Adrenergic receptor alpha-1 (Rattus norvegicus) (UniProt P15823+P23944+P43140); assay: Displacement of radiolabeled prazosin from adrenergic alpha1 receptor in rat cerebral cortex; assay type: tissue-based
[15] = target: Adrenergic receptor alpha-2 (Rattus norvegicus) (UniProt P22086+P19328+P22909); assay: Displacement of radiolabeled yohimbine from adrenergic alpha-2 receptor in rat cerebral cortex; assay type: tissue-based
[16] = target: Substance-P receptor (Homo sapiens) (UniProt P25103); assay: Displacement of radiolabeled [Sar9,Met(O2)11]-SP from NK1 receptor expressed in U373MG cells at 10 uM; assay type: cell-based; details: U-373MG ATCC
Substance-P receptor (Homo sapiens), sequence (P25103 whole entry): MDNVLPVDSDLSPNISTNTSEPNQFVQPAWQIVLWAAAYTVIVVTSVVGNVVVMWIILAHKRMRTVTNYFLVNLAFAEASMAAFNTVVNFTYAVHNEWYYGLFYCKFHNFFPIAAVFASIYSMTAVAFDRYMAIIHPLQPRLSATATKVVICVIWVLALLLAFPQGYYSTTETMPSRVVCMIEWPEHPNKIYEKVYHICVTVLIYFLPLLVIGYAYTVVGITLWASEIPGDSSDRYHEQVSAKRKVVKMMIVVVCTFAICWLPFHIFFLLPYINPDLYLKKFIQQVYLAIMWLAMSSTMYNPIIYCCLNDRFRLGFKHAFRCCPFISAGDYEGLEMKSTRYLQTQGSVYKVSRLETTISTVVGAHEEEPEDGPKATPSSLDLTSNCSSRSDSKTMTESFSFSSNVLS

Rattus norvegicus [17] = species: Rattus norvegicus; assay: Displacement of radiolabeled naloxone from opiate receptor in rat cerebral cortex; assay type: tissue-based
[18] = target: Serotonin (5-HT) receptor (Rattus norvegicus) (UniProt P35563+P35365+P32305+P31388+Q9JJ16+P28564+P30994+Q62758+P08909+P14842+P30940+P35364+P19327+P28565); assay: Displacement of radiolabeled serotonin from 5-HT receptor in rat cerebral cortex; assay type: tissue-based
Bos taurus [19] = species: Bos taurus; assay: Inhibition of bovine PDE1 at 10 uM
[20] = target: cGMP-dependent 3',5'-cyclic phosphodiesterase (Homo sapiens) (UniProt O00408); assay: Inhibition of PDE2 expressed in differentiated U937 cells at 10 uM; assay type: cell-based; details: U-937
[21] = target: Phosphodiesterase 4 (Homo sapiens) (UniProt P27815+Q08499+Q07343+Q08493); assay: Inhibition of PDE4 expressed in U937 cells at 10 uM; assay type: cell-based; details: U-937
[22] = target: Acetylcholinesterase (Homo sapiens) (UniProt P22303); assay: Inhibition of human recombinant AChE expressed in HEK293 cells at 10 uM; assay type: cell-based
[23] = target: Cannabinoid receptor 1 (Homo sapiens) (UniProt P21554); assay: Displacement of radiolabeled WIN-55212-2 from human CB1 receptor expressed in HEK293 cells at 10 uM; assay type: cell-based
Cannabinoid receptor 1 (Homo sapiens), sequence (P21554 whole entry): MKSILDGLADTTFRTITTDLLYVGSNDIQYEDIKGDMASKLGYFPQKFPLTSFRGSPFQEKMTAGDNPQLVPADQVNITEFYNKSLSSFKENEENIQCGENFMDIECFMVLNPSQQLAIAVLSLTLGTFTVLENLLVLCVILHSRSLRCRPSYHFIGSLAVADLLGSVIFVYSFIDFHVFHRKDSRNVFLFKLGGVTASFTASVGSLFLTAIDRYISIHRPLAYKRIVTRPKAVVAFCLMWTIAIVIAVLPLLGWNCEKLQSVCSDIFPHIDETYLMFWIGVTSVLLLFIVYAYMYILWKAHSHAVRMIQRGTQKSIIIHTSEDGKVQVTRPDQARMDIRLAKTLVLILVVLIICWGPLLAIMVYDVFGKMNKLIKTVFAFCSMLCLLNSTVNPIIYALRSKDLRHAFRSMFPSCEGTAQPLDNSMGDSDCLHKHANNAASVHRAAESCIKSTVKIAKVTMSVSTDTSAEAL

[24] = target: Muscarinic acetylcholine receptor M2 (Rattus norvegicus) (UniProt P10980); assay: Displacement of radiolabeled atropine from rat brain muscarinic M2 receptor at 10 uM
[25] = target: Muscarinic acetylcholine receptor M1 (Rattus norvegicus) (UniProt P08482); assay: Displacement of radiolabeled atropine from rat brain muscarinic M1 receptor at 10 uM
Muscarinic acetylcholine receptor M1 (Rattus norvegicus), sequence (P08482 whole entry): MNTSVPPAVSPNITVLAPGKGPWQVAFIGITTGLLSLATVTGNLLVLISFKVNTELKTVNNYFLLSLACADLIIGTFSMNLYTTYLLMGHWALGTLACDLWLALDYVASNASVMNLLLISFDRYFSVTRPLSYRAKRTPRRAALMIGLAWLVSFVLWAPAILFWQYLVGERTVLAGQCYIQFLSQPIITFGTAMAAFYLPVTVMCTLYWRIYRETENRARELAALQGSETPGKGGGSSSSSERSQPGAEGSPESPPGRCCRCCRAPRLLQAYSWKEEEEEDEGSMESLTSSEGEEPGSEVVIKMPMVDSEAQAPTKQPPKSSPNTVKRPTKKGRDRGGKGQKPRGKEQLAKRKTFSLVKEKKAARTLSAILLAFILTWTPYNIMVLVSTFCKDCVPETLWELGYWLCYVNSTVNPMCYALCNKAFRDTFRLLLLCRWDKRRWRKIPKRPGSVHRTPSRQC

[26] = target: Muscarinic acetylcholine receptor M3 (Rattus norvegicus) (UniProt P08483); assay: Displacement of radiolabeled atropine from rat brain muscarinic M3 receptor at 10 uM
Muscarinic acetylcholine receptor M3 (Rattus norvegicus), sequence (P08483 whole entry, looked up): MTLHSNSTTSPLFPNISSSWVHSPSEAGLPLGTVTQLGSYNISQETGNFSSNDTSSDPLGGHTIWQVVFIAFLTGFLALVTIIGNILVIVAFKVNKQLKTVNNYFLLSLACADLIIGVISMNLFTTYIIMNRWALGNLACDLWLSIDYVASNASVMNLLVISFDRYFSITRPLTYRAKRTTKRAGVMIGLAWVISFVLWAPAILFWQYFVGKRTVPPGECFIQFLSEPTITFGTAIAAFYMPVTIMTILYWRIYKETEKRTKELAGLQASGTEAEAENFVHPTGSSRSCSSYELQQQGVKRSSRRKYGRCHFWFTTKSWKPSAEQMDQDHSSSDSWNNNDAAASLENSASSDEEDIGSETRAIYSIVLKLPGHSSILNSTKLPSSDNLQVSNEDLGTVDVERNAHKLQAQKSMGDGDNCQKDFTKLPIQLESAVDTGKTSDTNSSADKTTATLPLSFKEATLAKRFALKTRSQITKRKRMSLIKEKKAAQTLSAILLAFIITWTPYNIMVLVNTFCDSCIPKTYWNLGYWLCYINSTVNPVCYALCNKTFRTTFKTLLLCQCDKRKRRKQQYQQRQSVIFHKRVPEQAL

[27] = target: Muscarinic acetylcholine receptor M4 (Rattus norvegicus) (UniProt P08485); assay: Displacement of radiolabeled atropine from rat brain muscarinic M4 receptor at 10 uM
Muscarinic acetylcholine receptor M4 (Rattus norvegicus), sequence (P08485 whole entry): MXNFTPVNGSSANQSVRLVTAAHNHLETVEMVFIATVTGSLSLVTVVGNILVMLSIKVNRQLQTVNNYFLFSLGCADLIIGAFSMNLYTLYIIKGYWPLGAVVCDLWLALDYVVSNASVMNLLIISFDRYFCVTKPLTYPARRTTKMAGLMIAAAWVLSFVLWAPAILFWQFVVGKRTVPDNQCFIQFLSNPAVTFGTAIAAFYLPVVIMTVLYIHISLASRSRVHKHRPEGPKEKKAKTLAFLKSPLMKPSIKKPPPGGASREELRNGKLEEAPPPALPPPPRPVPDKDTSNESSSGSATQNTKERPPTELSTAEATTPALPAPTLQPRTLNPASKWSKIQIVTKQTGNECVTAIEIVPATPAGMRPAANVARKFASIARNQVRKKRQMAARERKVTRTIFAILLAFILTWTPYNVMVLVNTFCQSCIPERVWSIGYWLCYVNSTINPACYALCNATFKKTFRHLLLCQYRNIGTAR

[28] = tested on: Protein kinase C (Rattus norvegicus); assay: Inhibition of rat brain PKC at 10 uM

Measured: Activity

O=C(O)c1ccccc1C1CCCNC1 (stereo unspecified)
Not Active: [6]
inactive: all other assays above
